Data as given in PMC11995724, “Antibiotic target discovery by integrated phenotypic and activity-based profiling of electrophilic fragments” (Cell chemical biology, 2025).

Experiment: in vitro
Conditions: human, hek293t cells
In the case of `CC(NC(=O)C(C#N)=Cc1ccc(C(F)(F)F)cc1)c1ccccc1` (centres unmarked) [9-L21, 2-cyano-N-(1-phenylethyl)-3-[4-(trifluoromethyl)phenyl]prop-2-enamide], the viability at 48 h, 25 µM is reported as 2.11%. Molecule `CC(O)=C(C#N)C(=O)Nc1ccc(-c2ccccc2Cl)c(Cl)c1` [9-L22, 2-cyano-N-{2,2'-dichloro-[1,1'-biphenyl]-4-yl}-3-hydroxybut-2-enamide] has a viability at 48 h, 25 µM of 117%. For `N#CC(=Cc1cnn(Cc2ccccc2)c1)C(=O)Nc1nccs1` [9-M03, 3-(1-benzyl-1H-pyrazol-4-yl)-2-cyano-N-(1,3-thiazol-2-yl)prop-2-enamide], the viability at 48 h, 25 µM was 111%. Work on `Cc1ccc(C=C(C#N)C(N)=O)c(C)c1` [9-M04, 2-cyano-3-(2,4-dimethylphenyl)prop-2-enamide] yielded a viability at 48 h, 25 µM of 115%. For `N#CC(=Cc1cccc2nccn12)C(=O)Nc1ccccc1` [9-M05, 2-cyano-3-{imidazo[1,2-a]pyridin-5-yl}-N-phenylprop-2-enamide], the viability at 48 h, 25 µM was 125%. Work on `N#CC(=Cc1ccc(F)c(F)c1)C(=O)NC1CC1` [9-M06, 2-cyano-N-cyclopropyl-3-(3,4-difluorophenyl)prop-2-enamide] yielded a viability at 48 h, 25 µM of 109%. `CC(C)NC(=O)C(C#N)=Cc1ccc(Cl)c(Cl)c1` [9-M07, 2-cyano-3-(3,4-dichlorophenyl)-N-(propan-2-yl)prop-2-enamide] gave a viability at 48 h, 25 µM of 30.2%. Molecule `CSc1ccc(C=C(C#N)C(=O)Nc2ccc(C(=O)O)cc2)cc1` [9-M08, 4-{2-cyano-3-[4-(methylsulfanyl)phenyl]prop-2-enamido}benzoic acid] has a viability at 48 h, 25 µM of 118%. `N#CC(=Cc1ccsc1)C(=O)Nc1cccc2ccccc12` [9-M09, 2-cyano-N-(naphthalen-1-yl)-3-(thiophen-3-yl)prop-2-enamide] showed a viability at 48 h, 25 µM of 120%. With `Cn1cc(C=C(C#N)C(=O)Nc2ccc(Oc3ccccc3)cc2)cn1` [9-M10, 2-cyano-3-(1-methyl-1H-pyrazol-4-yl)-N-(4-phenoxyphenyl)prop-2-enamide] the viability at 48 h, 25 µM was 109%. Work on `CC(C)NC(=O)C(C#N)=Cc1ccc(C#N)cc1` [9-M11, 2-cyano-3-(4-cyanophenyl)-N-(propan-2-yl)prop-2-enamide] yielded a viability at 48 h, 25 µM of 123%. For `CCc1oc2ccccc2c1C=C(C#N)C(=O)NC1CC1` [9-M12, 2-cyano-N-cyclopropyl-3-(2-ethyl-1-benzofuran-3-yl)prop-2-enamide], the viability at 48 h, 25 µM was 74.5%. In the case of `COc1c(Cl)cc(Cl)cc1C=C(C#N)C(N)=O` [9-M13, 2-cyano-3-(3,5-dichloro-2-methoxyphenyl)prop-2-enamide], the viability at 48 h, 25 µM is reported as 137%. `N#CC(=Cc1cnc(-c2ccccc2)nc1)C(=O)NCc1ccco1` [9-M14, 2-cyano-N-[(furan-2-yl)methyl]-3-(2-phenylpyrimidin-5-yl)prop-2-enamide] gave a viability at 48 h, 25 µM of 143%. Work on `N#CC(=Cc1ccccc1)C(=O)NC1CC1` [9-M15, 2-cyano-N-cyclopropyl-3-phenylprop-2-enamide] yielded a viability at 48 h, 25 µM of 128%. In the case of `C=CCNC(=O)C(C#N)=Cc1cnn(-c2ccc(Cl)cc2)c1` [9-M16, 3-[1-(4-chlorophenyl)-1H-pyrazol-4-yl]-2-cyano-N-(prop-2-en-1-yl)prop-2-enamide], the viability at 48 h, 25 µM is reported as 115%. With `COCCNC(=O)C(C#N)=Cc1sccc1C` [9-M17, 2-cyano-N-(2-methoxyethyl)-3-(3-methylthiophen-2-yl)prop-2-enamide] the viability at 48 h, 25 µM was 131%. In the case of `Cc1cnc(-c2cccc(NC(=O)C(C#N)=Cc3ccco3)c2)o1` [9-M18, 2-cyano-3-(furan-2-yl)-N-[3-(5-methyl-1,3-oxazol-2-yl)phenyl]prop-2-enamide], the viability at 48 h, 25 µM is reported as 116%. `Cc1ccc(NC(=O)C(C#N)=Cc2ccsc2)c(C)c1` [9-M19, 2-cyano-N-(2,4-dimethylphenyl)-3-(thiophen-3-yl)prop-2-enamide] gave a viability at 48 h, 25 µM of 102%. In the case of `Cc1nn(C)c(C)c1C=C(C#N)C(=O)Nc1cccc(Cl)c1C` [9-M20, N-(3-chloro-2-methylphenyl)-2-cyano-3-(1,3,5-trimethyl-1H-pyrazol-4-yl)prop-2-enamide], the viability at 48 h, 25 µM is reported as 111%. In the case of `N#CC(=Cc1ccccc1OC(F)F)C(=O)Nc1ccccc1Cl` [9-M21, N-(2-chlorophenyl)-2-cyano-3-[2-(difluoromethoxy)phenyl]prop-2-enamide], the viability at 48 h, 25 µM is reported as 119%. For `N#CC(=Cc1cccs1)C(=O)Nc1cccc2ccccc12` [9-M22, 2-cyano-N-(naphthalen-1-yl)-3-(thiophen-2-yl)prop-2-enamide], the viability at 48 h, 25 µM was 100%. Molecule `Cc1ccoc1C=C(C#N)C(=O)NCCc1ccccc1` [9-N03, 2-cyano-3-(3-methylfuran-2-yl)-N-(2-phenylethyl)prop-2-enamide] has a viability at 48 h, 25 µM of 93.9%. Work on `CC(NC(=O)C(C#N)=Cc1cccc(Cl)c1Cl)c1ccccc1` (centres unmarked) [9-N04, 2-cyano-3-(2,3-dichlorophenyl)-N-(1-phenylethyl)prop-2-enamide] yielded a viability at 48 h, 25 µM of 3.94%. In the case of `N#CC(=Cc1ccc(Cl)c([N+](=O)[O-])c1)C(=O)N1CCCC1` [9-N05, 3-(4-chloro-3-nitrophenyl)-2-(pyrrolidine-1-carbonyl)prop-2-enenitrile], the viability at 48 h, 25 µM is reported as 5.4%. For `N#CC(C(=O)NC1CCCCC1)=C1N=C(N)c2ccccc21` [9-N06, 2-(3-amino-1H-isoindol-1-ylidene)-2-cyano-N-cyclohexylacetamide], the viability at 48 h, 25 µM was 80.2%. `Cc1cc(C=C(C#N)C(=O)Nc2cn[nH]c2)c(C)n1-c1ccc(F)cc1` [9-N07, 2-cyano-3-[1-(4-fluorophenyl)-2,5-dimethyl-1H-pyrrol-3-yl]-N-(1H-pyrazol-4-yl)prop-2-enamide] showed a viability at 48 h, 25 µM of 95.1%. With `N#CC(=Cc1c[nH]c2ccccc12)C(=O)Nc1cccc2ncccc12` [9-N08, 2-cyano-3-(1H-indol-3-yl)-N-(quinolin-5-yl)prop-2-enamide] the viability at 48 h, 25 µM was 101%. For `Cc1cc(CNC(=O)C(C#N)=Cc2ccco2)ccc1N(C)C` [9-N09, 2-cyano-N-{[4-(dimethylamino)-3-methylphenyl]methyl}-3-(furan-2-yl)prop-2-enamide], the viability at 48 h, 25 µM was 113%. With `N#CC(=Cc1ccc(O)cc1)C(=O)NCc1ccco1` [9-N10, 2-cyano-N-[(furan-2-yl)methyl]-3-(4-hydroxyphenyl)prop-2-enamide] the viability at 48 h, 25 µM was 103%. Work on `N#CC(=Cc1ccc2ccccc2c1)C(=O)NCc1ccccc1` [9-N11, N-benzyl-2-cyano-3-(naphthalen-2-yl)prop-2-enamide] yielded a viability at 48 h, 25 µM of 123%. For `COc1cc(C=C(C#N)C(=O)NC(C)C)sn1` [9-N12, 2-cyano-3-(3-methoxy-1,2-thiazol-5-yl)-N-(propan-2-yl)prop-2-enamide], the viability at 48 h, 25 µM was 115%. `Cc1ccc(C)c(C=C(C#N)C(=O)Nc2nccs2)c1` [9-N13, 2-cyano-3-(2,5-dimethylphenyl)-N-(1,3-thiazol-2-yl)prop-2-enamide] showed a viability at 48 h, 25 µM of 126%. Work on `CCCNC(=O)C(C#N)=Cc1cnc2c(C)cccn12` [9-N14, 2-cyano-3-{8-methylimidazo[1,2-a]pyridin-3-yl}-N-propylprop-2-enamide] yielded a viability at 48 h, 25 µM of 120%. For `Cc1c(C=C(C#N)C(=O)Nc2cnc3ccccc3c2)cc(C#N)n1C` [9-N15, 2-cyano-3-(5-cyano-1,2-dimethyl-1H-pyrrol-3-yl)-N-(quinolin-3-yl)prop-2-enamide], the viability at 48 h, 25 µM was 111%. `COc1ccc(-n2c(C)cc(C=C(C#N)C(=O)N(C)OC)c2C)cc1` [9-N16, 2-cyano-N-methoxy-3-[1-(4-methoxyphenyl)-2,5-dimethyl-1H-pyrrol-3-yl]-N-methylprop-2-enamide] gave a viability at 48 h, 25 µM of 88.4%. Molecule `N#CC(=Cc1cccc(F)c1)C(=O)Nc1ccc(SC(F)F)cc1` [9-N17, 2-cyano-N-{4-[(difluoromethyl)sulfanyl]phenyl}-3-(3-fluorophenyl)prop-2-enamide] has a viability at 48 h, 25 µM of 103%. `N#CC(=Cc1csc(-c2ccsc2)n1)C(=O)NC1CC1` [9-N18, 2-cyano-N-cyclopropyl-3-[2-(thiophen-3-yl)-1,3-thiazol-4-yl]prop-2-enamide] showed a viability at 48 h, 25 µM of 110%. `Cc1cn2c(C=C(C#N)C(=O)Nc3c(C)cccc3C)c(C)nc2s1` [9-N19, 2-cyano-3-{2,6-dimethylimidazo[2,1-b][1,3]thiazol-5-yl}-N-(2,6-dimethylphenyl)prop-2-enamide] gave a viability at 48 h, 25 µM of 94.4%. In the case of `CC(C)Oc1ccccc1C=C(C#N)C(=O)Nc1ccccc1Cl` [9-N20, N-(2-chlorophenyl)-2-cyano-3-[2-(propan-2-yloxy)phenyl]prop-2-enamide], the viability at 48 h, 25 µM is reported as 104%. `Cc1ccc(C=C(C#N)C(=O)Nc2c(Cl)cccc2Cl)o1` [9-N21, 2-cyano-N-(2,6-dichlorophenyl)-3-(5-methylfuran-2-yl)prop-2-enamide] gave a viability at 48 h, 25 µM of 108%. For `N#C/C(C(=O)Nc1ccc(C(F)(F)F)cc1)=C(/O)C1CC1` [9-N22, (2Z)-2-cyano-3-cyclopropyl-3-hydroxy-N-[4-(trifluoromethyl)phenyl]prop-2-enamide], the viability at 48 h, 25 µM was 82.6%. `N#CC(=Cc1cccc2ccccc12)C(=O)NC1CC1` [9-O03, 2-cyano-N-cyclopropyl-3-(naphthalen-1-yl)prop-2-enamide] gave a viability at 48 h, 25 µM of 116%. With `CN(C)c1ccc(C=C(C#N)C(N)=O)cc1` [9-O04, 2-cyano-3-[4-(dimethylamino)phenyl]prop-2-enamide] the viability at 48 h, 25 µM was 118%. In the case of `N#CC(=Cc1ccsc1)C(=O)Nc1ccccc1Cl` [9-O05, N-(2-chlorophenyl)-2-cyano-3-(thiophen-3-yl)prop-2-enamide], the viability at 48 h, 25 µM is reported as 150%. With `CCNC(=O)C(C#N)=Cc1c(N2CCOCC2)nc2ccccn2c1=O` [9-O06, 2-cyano-N-ethyl-3-[2-(morpholin-4-yl)-4-oxo-4H-pyrido[1,2-a]pyrimidin-3-yl]prop-2-enamide] the viability at 48 h, 25 µM was 137%. Work on `CCCCNC(=O)C(C#N)=Cc1ccc(Cl)cc1Cl` [9-O07, N-butyl-2-cyano-3-(2,4-dichlorophenyl)prop-2-enamide] yielded a viability at 48 h, 25 µM of 69%. `N#CC(=Cc1cc2ccccc2o1)C(=O)NCc1ccco1` [9-O08, 3-(1-benzofuran-2-yl)-2-cyano-N-[(furan-2-yl)methyl]prop-2-enamide] showed a viability at 48 h, 25 µM of 114%. In the case of `CCCCNC(=O)C(C#N)=Cc1c(Cl)nc2ccccn12` [9-O09, N-butyl-3-{2-chloroimidazo[1,2-a]pyridin-3-yl}-2-cyanoprop-2-enamide], the viability at 48 h, 25 µM is reported as 129%. `N#CC(=Cc1ccc(N2CCOCC2)cc1)C(=O)NCC1CCCO1` (centres unmarked) [9-O10, 2-cyano-3-[4-(morpholin-4-yl)phenyl]-N-[(oxolan-2-yl)methyl]prop-2-enamide] gave a viability at 48 h, 25 µM of 120%.
